Entries after “also recorded” stand apart in the source; their conditions may differ.
Key:
[1] = test system: zebrafish larvae with PSA-induced IBD; experiment: In vivo examination of gut architecture and motility (quercetin labelling) in PSA-induced IBD; conditions: for Rescue of the IBD phenotype: IBD induced with PSA 3 to 5 d.p.f., drug added with PSA from 5 d.p.f.
[2] = test system: zebrafish larvae with PSA-induced IBD; experiment: Histology (haematoxylin and eosin sections) of gut in PSA-induced IBD; type: in vivo
zebrafish = experiment: DMSO tolerance of zebrafish; conditions: in vivo
Excerpt: Moreover, the inventors have discovered that zebrafish are also DMSO (dimethyl sulphoxide) tolerant. This is important as DMSO is used as a solvent to dissolve many drugs. The inventors have established that zebrafish can tolerate 1% DMSO. Thus, a candidate drug or other test substance may be dissolved in DMSO and administered to zebrafish by adding to the fish water to give a final concentration of DMSO of at least up to 1%. This is employed in various preferred aspects and embodiments of the present invention.

zebrafish larvae = experiment: Suitability of fluorescent stains for in vivo gut visualisation
Protocol: In vivo labelling was achieved by rearing fish in a suspension of 0.05% quercetin (Sigma) for a minimum of 2 hours. To observe gut architecture and motility, larvae were anaesthetised larvae by immersion in 0.2 mg/ml 3-amino benzoic acid ethylester (MS222) (Sigma). Gut architecture and motility can be observed using the FITC and GFP filter sets.
Visualisation is achieved by the administration of a fluorescent dye to the embryo medium. The dye is swallowed by the fish but not readily absorbed and therefore fills the entire gut.
When viewed under a fluorescent microscope, the crypts and villi of the gut were apparent as the unstained tissue of the gut wall was highlighted in contrast to the fluorescent medium that filled the gut lumen. In addition, as staining can be performed in vivo, waves of peristalsis were observed (as indicated in the different positions of the gut wall).

TNFα = conditions: co-administration with PSA from 3 to 8 d.p.f.

Nc1ccc(O)c(C(=O)O)c1 [5-ASA, 5-amino salicylic acid]
Rescue of the IBD phenotype [1]: Rescue of the IBD phenotype was seen
Rescue of the IBD phenotype ([1]; listed as salicylic acid): rescue of the disease phenotype
Effect when administered after the induction of disease changes ([2]; drug given after PSA induction): effective when administered after the induction of disease changes
Prevention/rescue of disease changes when co-administered with PSA ([2]; effective dose co-administered with PSA, histological analysis): able to prevent/rescue disease changes

C[S+](C)[O-] [DMSO, dimethyl sulphoxide]
Tolerated DMSO concentration in fish water (zebrafish): 1%

O=c1c(O)c(-c2ccc(O)c(O)c2)oc2cc(O)cc(O)c12 [quercetin]
Toxicity as in vivo gut stain (zebrafish larvae): low toxicity

O=C1CCC(N2C(=O)c3ccccc3C2=O)C(=O)N1 (stereo not drawn) [thalidomide]
Rescue of the in vivo disease phenotype ([1]; co-administration with PSA from 3 to 8 d.p.f., observed at 8 d.p.f.): failed to rescue the in vivo disease phenotype; also recorded: neither rescues the disease changes
TNFα expression (TNFα): down-regulation of TNFα expression
Rescue / improvement in gut histology ([2]; co-administration with PSA from 3 to 8 d.p.f.): failed to show improvement; also recorded: neither rescues the disease changes

— patent US20060233709A1, “Method for identifying novel treatments of inflammatory disease in the gut” (priority 2003, published 2006)
